From patent publication US20140170768A1, “METHOD FOR MONITORING AND ASSESSING PITUITARY FUNCTION” (priority 2012, published 2014)

Key:
Assay type in all cases: in vivo, human
[1] = system: person with adrenal insufficiency; assay: Case Three: ACTH and cortisol before and after a single mifepristone dose in adrenal insufficiency; settings: 8 AM on the day after a single 300 mg dose
Description: ACTH and cortisol levels were low (ACTH<[…] and cortisol 2.4 micrograms/deciliter following exogenous ACTH administration). Based upon the finding of both low ACTH and cortisol, the cause of their adrenal insufficiency could be due to pituitary or to hypothalamic disease. […] ACTH and cortisol were measured at 8 AM on the day after they received a single dose of 300 mg mifepristone.

[2] = system: person with recurrent Cushing's disease; assay: Case Two: ACTH and cortisol before and after a single mifepristone dose in recurrent Cushing's disease; settings: 8 AM the morning following a 300 mg dose
Description: A person with recurrent Cushing's disease following pituitary surgery received a dose of 300 mg mifepristone. ACTH and cortisol were measured at 8 AM prior to and at 8 AM the morning following the dose of mifepristone.

[3] = system: patients with Cushing's syndrome secondary to ectopic ACTH secretion; assay: Case One: ACTH and cortisol response to mifepristone in Cushing's syndrome secondary to ectopic ACTH secretion
Source text: (§1) Hypercortisolism can result from excessive pituitary ACTH secretion, ectopic ACTH synthesis, overproduction of cortisol by an adrenal tumor, and rarely by extra-hypothalamic CRH production. Identifying the cause of excess cortisol production relies upon the sensitivity of pituitary-dependent ACTH secretion to inhibition by pharmacologic doses of dexamethasone. Mifepristone is a glucocorticoid receptor antagonist approved for the treatment of hyperglycemia in patients with Cushing's disease. It was hypothesized that mifepristone, by blocking glucocorticoid receptors, could be used to identify patients with pituitary-dependent hypercortisolism (i.e., Cushing's disease), as ACTH and cortisol levels should rise in these patients following mifepristone administration, while ACTH and cortisol should not change following mifepristone administration in patients with ectopic ACTH or primary adrenal disease (i.e., Cushing's syndrome). To test this hypothesis, patients with either Cushing's Disease or Cushing's Syndrome were administered mifepristone and monitored under the following conditions. Data are presented relating to ACTH and cortisol responses in patients with Cushing's disease following transphenoidal surgery (n=18) (i.e., surgery in which surgical instruments are inserted into part of the brain by going through the nose and the sphenoid bone (a butterfly-shaped bone at the base of the skull) in order to remove tumors of the pituitary gland), patients with Cushing's disease following transphenoidal surgery and pituitary radiation therapy (n=23), and patients with Cushing's syndrome secondary to ectopic ACTH secretion (n=4). All patients received mifepristone 300 mg orally per day. ACTH and cortisol were measured as close to 8 AM as possible using a centralized laboratory (Quest Diagnostics, Collegeville, Pa.) 14 days after commencing mifepristone therapy.

[4] = system: patients with Cushing's disease; assay: Case One: ACTH and cortisol response to mifepristone in Cushing's disease patients after transphenoidal surgery, with or without radiation therapy
Source text: as §1

[5] = Cushing's syndrome due to ectopic ACTH, Day 14 vs Day 0, NS
[6] = Cushing's disease after surgery and radiation therapy, Day 14 vs Day 0, mifepristone 300 mg/day orally
[7] = Cushing's disease, no radiation therapy, Day 14 vs Day 0, mifepristone 300 mg/day orally

CC#C[C@]1(O)CC[C@H]2[C@@H]3CCC4=CC(=O)CCC4=C3[C@@H](c3ccc(N(C)C)cc3)C[C@@]21C [mifepristone]
cortisol Post-mifepristone ([1]; pre-mifepristone 2.1): 11.3 micrograms/deciliter
ACTH Post-mifepristone ([1]; pre-mifepristone <5): 13 picograms/ml plasma
cortisol Post-mifepristone ([2]; pre-mifepristone 19.7): 32.9 micrograms/deciliter
ACTH Post-mifepristone ([2]; pre-mifepristone 84): 129 picograms/ml plasma
ACTH, Fold change [3, 5]: 1.75 ± .75
cortisol, Fold change [3, 5]: 1.21 ± .79
change in ACTH or cortisol following mifepristone therapy ([3]; patients with ectopic ACTH, mifepristone 300 mg/day, 14 days): substantially no significant change
ACTH s/p RT, Fold change [4, 6]: 1.40 ± .45
cortisol s/p RT, Fold change [4, 6]: 1.24 ± .23
rise in ACTH and cortisol, no radiation therapy versus radiation therapy ([4]; Cushing's disease no RT compared with s/p RT, mifepristone 300 mg/day, 14 days): significantly greater rise
ACTH no RT, Fold change [4, 7]: 2.13 ± .96
cortisol no RT, Fold change [4, 7]: 1.56 ± .6
